The values below come from patent publication US20090258949A1, “AMORPHOUS FORM OF CINACALCET” (priority 2006, published 2009).

Counter-ions that a name gives are not always drawn.

This data set in a line: Stress stability of amorphous Cinacalcet Hydrochloride, assay by HPLC. Type of data set: physicochemical. The conditions noted are these: stressed in a closed vial at 60° C. for 24 hours. As to the method:
A sample of amorphous Cinacalcet Hydrochloride from Example 1 was stressed in a closed vial at 60° C. for 24 hours. […] Vol 7 μm; temperature 40° C. sample preparation: approximately 10 mg of sample dissolved in 25 ml of eluent B gradient: [table] Area %/mg of starting material and stressed sample were compared

Consider `C[C@@H](NCCCc1cccc(C(F)(F)F)c1)c1cccc2ccccc12` [N-[1-(R)-(−)-(1-naphthyl)ethyl]-3-[3-(trifluoromethyl)phenyl]-1-aminopropane hydrochloride], for which the “decrease in assay measured by HPLC (area %/mg of starting material and stressed sample compared)” value is “No decrease in assay”.
